Measured values reported in ChEMBL document CHEMBL3813680, “Discovery of a 2-hydroxyacetophenone derivative as an outstanding linker to enhance potency and β-selectivity of liver X receptor agonist” (Bioorg Med Chem, 2016).

Key:
Mus musculus [1] = test: Antiatherosclerosis activity in LDL receptor knock out mouse model assessed as increase in HDL-C levels at 1 mg/kg, po by HPLC analysis relative to control; format: functional
Mus musculus [2] = test: Upregulation of ABCA1 mRNA expression in LDL receptor knock-out mouse blood at 1 mg/kg, po relative to control; format: functional
Mus musculus [3] = test: Antiatherosclerosis activity in LDL receptor knock out mouse model assessed as increase in TC levels at 3 mg/kg, po by HPLC analysis relative to control; format: functional
Mus musculus [4] = test: Upregulation of ABCA1 mRNA expression in LDL receptor knock-out mouse blood at 3 mg/kg, po relative to control; format: functional
Mus musculus [5] = test: Antiatherosclerosis activity in LDL receptor knock out mouse model assessed as decrease in area of lipid accumulation at 3 mg/kg, po by HPLC analysis relative to control; format: functional; set-up: scale not given: the % may be the effect or the level left
Mus musculus [6] = test: Antiatherosclerosis activity in LDL receptor knock out mouse model assessed as LDL-C levels at 1 mg/kg, po by HPLC analysis relative to control; format: functional
Mus musculus [7] = test: Antiatherosclerosis activity in LDL receptor knock out mouse model assessed as increase in TG levels at 3 mg/kg, po by HPLC analysis relative to control; format: functional
Mus musculus [8] = test: Antiatherosclerosis activity in LDL receptor knock out mouse model assessed as decrease in area of lipid accumulation at 1 mg/kg, po by HPLC analysis relative to control; format: functional; set-up: scale not given: the % may be the effect or the level left
Mus musculus [9] = test: Antiatherosclerosis activity in LDL receptor knock out mouse model assessed as decrease in LDL-C levels at 3 mg/kg, po by HPLC analysis relative to control; format: functional; set-up: scale not given: the % may be the effect or the level left
[10] = Cmax in mouse plasma at 10 mg/kg, po measured up to 24 hrs by HPLC-LC-MS/MS analysis; format: ADME, organism-based; set-up: dose 10 mg/kg, route oral
Mus musculus [11] = test: Upregulation of SREBP-1c expression in LDL receptor knock-out mouse liver at 1 mg/kg, po relative to control; format: functional
Mus musculus [12] = test: Antiatherosclerosis activity in LDL receptor knock out mouse model assessed as increase in TG levels at 1 mg/kg, po by HPLC analysis relative to control; format: functional
Mus musculus [13] = test: Antiatherosclerosis activity in LDL receptor knock out mouse model assessed as increase in TC levels at 1 mg/kg, po by HPLC analysis relative to control; format: functional
[14] = AUC in mouse plasma at 10 mg/kg, po measured up to 24 hrs by HPLC-LC-MS/MS analysis; format: ADME, organism-based; set-up: time < 24 hr, dose 10 mg/kg, route oral
[15] = biological target: T1, Oxysterols receptor LXR-beta (Homo sapiens, UniProt P55055); test: Agonist activity at GAL4 fused LXRbeta-LBD (unknown origin) transfected in CHOK1 cells after 24 hrs by luciferase reporter gene assay
T1 sequence (P55055 whole entry): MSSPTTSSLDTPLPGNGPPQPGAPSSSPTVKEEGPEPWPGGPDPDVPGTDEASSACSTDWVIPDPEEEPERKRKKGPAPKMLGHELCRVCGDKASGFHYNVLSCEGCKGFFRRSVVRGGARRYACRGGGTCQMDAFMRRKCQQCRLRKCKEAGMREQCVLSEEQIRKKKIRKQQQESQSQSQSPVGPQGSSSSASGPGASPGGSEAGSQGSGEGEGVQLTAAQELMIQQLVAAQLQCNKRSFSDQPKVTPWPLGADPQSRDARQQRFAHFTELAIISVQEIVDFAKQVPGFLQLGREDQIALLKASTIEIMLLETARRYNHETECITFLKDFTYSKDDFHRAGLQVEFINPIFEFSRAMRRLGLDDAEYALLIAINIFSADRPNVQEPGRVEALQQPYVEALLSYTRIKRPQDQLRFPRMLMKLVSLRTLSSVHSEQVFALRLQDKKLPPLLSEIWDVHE

Mus musculus [16] = test: Antiatherosclerosis activity in LDL receptor knock out mouse model assessed as increase in HDL-C levels at 3 mg/kg, po by HPLC analysis relative to control; format: functional
Mus musculus [17] = test: Upregulation of SREBP-1c expression in LDL receptor knock-out mouse liver at 3 mg/kg, po relative to control; format: functional
[18] = biological target: T2, Oxysterols receptor LXR-alpha (Homo sapiens, UniProt Q13133); test: Agonist activity at GAL4 fused LXRalpha (unknown origin) transfected in CHOK1 cells after 24 hrs by luciferase reporter gene assay
T2 sequence (Q13133 whole entry): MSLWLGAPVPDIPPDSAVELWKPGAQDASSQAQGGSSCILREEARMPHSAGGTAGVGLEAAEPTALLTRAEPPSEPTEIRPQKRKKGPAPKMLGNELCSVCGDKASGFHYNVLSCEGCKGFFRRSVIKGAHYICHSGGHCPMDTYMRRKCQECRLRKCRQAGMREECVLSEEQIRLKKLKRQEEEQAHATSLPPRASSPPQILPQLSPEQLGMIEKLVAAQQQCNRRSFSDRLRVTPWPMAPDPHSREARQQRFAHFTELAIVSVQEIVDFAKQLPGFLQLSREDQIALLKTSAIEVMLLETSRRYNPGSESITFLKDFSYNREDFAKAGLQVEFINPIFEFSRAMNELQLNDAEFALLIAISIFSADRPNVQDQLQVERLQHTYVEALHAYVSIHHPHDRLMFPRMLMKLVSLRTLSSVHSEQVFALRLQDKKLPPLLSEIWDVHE

- Cmax [10]: 503 ng/mL
- AUC at 24 h [14]: 3030 ng·h/mL
- EC50 [15]: 7 nM
- EC50 [18]: 200 nM
SMILES: CCCc1cc(C(O)(C(F)(F)F)C(F)(F)F)ccc1Oc1ccc(C(=O)CN2C(=O)NC(C)(c3ccc(OC(C)C)cn3)C2=O)c(O)c1 (single isomer, unassigned; (-))
- Activity (Mus musculus [1]): 115%
- fold change (FC) (Mus musculus [2]): 2.1
- Activity (Mus musculus [3]): 102%
- fold change (FC) (Mus musculus [4]): 3
- Activity (Mus musculus [5]): 59%
- Activity (Mus musculus [6]): 108%
- Activity (Mus musculus [7]): 166%
- Activity (Mus musculus [8]): 62%
- Activity (Mus musculus [9]): 97%
- fold change (FC) (Mus musculus [11]): 1.2
- Activity (Mus musculus [12]): 152%
- Activity (Mus musculus [13]): 111%
- Activity (Mus musculus [16]): 116%
- fold change (FC) (Mus musculus [17]): 1.5
